Legend:
[1] = biological target: T1, Type-2 angiotensin II receptor (Homo sapiens, UniProt P50052); experiment: In vitro binding affinity of compound against angiotensin II AT-2 receptor
T1 sequence (P50052 whole entry): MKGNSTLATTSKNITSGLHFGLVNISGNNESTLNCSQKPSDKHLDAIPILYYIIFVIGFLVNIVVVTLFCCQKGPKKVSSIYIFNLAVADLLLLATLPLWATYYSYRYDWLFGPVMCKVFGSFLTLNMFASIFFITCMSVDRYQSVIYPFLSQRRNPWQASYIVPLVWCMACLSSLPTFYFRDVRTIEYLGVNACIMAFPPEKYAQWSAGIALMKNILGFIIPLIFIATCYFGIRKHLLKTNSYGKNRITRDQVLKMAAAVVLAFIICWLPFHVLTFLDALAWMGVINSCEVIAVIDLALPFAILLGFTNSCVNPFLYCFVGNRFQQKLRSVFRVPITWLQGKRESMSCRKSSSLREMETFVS

[2] = biological target: T2, Type-1 angiotensin II receptor (Homo sapiens, UniProt P30556); experiment: In vitro binding affinity of compound against Angiotensin II receptor, type 1
T2 sequence (P30556 whole entry): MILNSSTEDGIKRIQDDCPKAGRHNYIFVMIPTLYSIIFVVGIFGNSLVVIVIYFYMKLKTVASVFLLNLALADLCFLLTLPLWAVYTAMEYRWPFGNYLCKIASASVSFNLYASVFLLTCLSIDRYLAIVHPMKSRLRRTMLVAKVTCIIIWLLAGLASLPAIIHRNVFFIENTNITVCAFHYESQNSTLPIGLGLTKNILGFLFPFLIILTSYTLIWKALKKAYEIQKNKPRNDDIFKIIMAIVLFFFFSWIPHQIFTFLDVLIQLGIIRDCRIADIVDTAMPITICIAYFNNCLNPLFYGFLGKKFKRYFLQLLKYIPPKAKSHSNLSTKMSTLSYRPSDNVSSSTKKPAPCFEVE

[3] = system: Rattus norvegicus; experiment: Compound was tested for its antihypertensive activity after intravenous administration to renal hypertensive rats; assay type: functional
[4] = system: Rattus norvegicus; experiment: Compound was tested for its antihypertensive activity after oral administration to renal hypertensive rats; assay type: functional

Row | SMILES | IC50 [1] | IC50 [2] | ED30 [3] | ED30 [4]
1 | CCCc1nc(CN2CCN(c3ccccc3)C[C@H]2Cc2ccccc2)c(C(=O)O)n1Cc1ccc(-c2ccccc2-c2nn[nH]n2)cc1 | 1000 nM | 10 nM |  | 
2 | CCCc1nc(CN2CCC(c3ccccc3)CC2)c(C(=O)O)n1Cc1ccc(-c2ccccc2-c2nn[nH]n2)cc1 | 400 nM | 2 nM |  | 
3 | CCCc1nc(CN2CCN(c3ccccc3)CC2)c(C(=O)O)n1Cc1ccc(-c2ccccc2-c2nnn[nH]2)cc1 | 50 nM | 5 nM | 0.004 mg/kg | > 3 mg/kg
4 | CCCCN(Cc1nc(CCC)n(Cc2ccc(-c3ccccc3S(=O)(=O)NC(=O)CCC)cc2)c1C(=O)O)C(=O)CCC | 90 nM | 2 nM | 0.18 mg/kg | 1.65 mg/kg
5 | CCCCCC(=O)NS(=O)(=O)c1ccccc1-c1ccc(Cn2c(CCC)nc(CN3CCN(c4ccccn4)CC3)c2C(=O)O)cc1 | 20 nM | 6 nM | 0.13 mg/kg | > 10 mg/kg
6 | CCCc1nc(CN2CCN(c3ccccc3)C[C@H]2C)c(C(=O)O)n1Cc1ccc(-c2ccccc2-c2nnn[nH]2)cc1 | 70 nM | 2 nM |  | 
7 | CCCc1nc(CNC(=O)OC(C)(C)C)c(C(=O)O)n1Cc1ccc(-c2ccccc2-c2nn[nH]n2)cc1 | 4000 nM | 6 nM |  | 
8 | CCCc1nc(CN2CCN(c3ccccn3)CC2)c(C(=O)O)n1Cc1ccc(-c2ccccc2-c2nn[nH]n2)cc1F | 200 nM | 0.9 nM |  | 
9 | CCCCc1nc(CN2CCN(c3ccccn3)CC2)c(C(=O)O)n1Cc1ccc(-c2ccccc2-c2nn[nH]n2)cc1 | 700 nM | 2 nM |  | 
10 | CCCc1nc(CN(Cc2ccccc2)C(=O)Cc2ccccc2)c(C(=O)O)n1Cc1ccc(-c2ccccc2-c2nn[nH]n2)cc1 | 400 nM | 20 nM |  | 
11 | CCCc1nc(CN2CCN(c3ccccn3)CC2)c(C(=O)O)n1Cc1ccc(-c2ccccc2-c2nn[nH]n2)cc1 | 60 nM | 4.2 nM | 0.003 mg/kg | > 3 mg/kg
12 | CCCc1nc(CN(Cc2ccccc2)C(=O)OCC(C)C)c(C(=O)O)n1Cc1ccc(-c2ccccc2-c2nn[nH]n2)cc1 | 800 nM | 20 nM |  | 
13 | CCCc1nc(CN(Cc2ccccc2)C(=O)Nc2ccccc2)c(C(=O)O)n1Cc1ccc(-c2ccccc2-c2nnn[nH]2)cc1 | 300 nM | 2 nM |  | 
14 | CCCc1nc(CN(Cc2ccccc2)C(=O)c2ccccc2)c(C(=O)O)n1Cc1ccc(-c2ccccc2S(=O)(=O)NC(=O)OCC(C)C)cc1 | 100 nM | 8 nM |  | 
15 | CCCc1nc(CN2CCN(c3ccccc3Cl)CC2)c(C(=O)O)n1Cc1ccc(-c2ccccc2-c2nnn[nH]2)cc1 | 600 nM | 2 nM |  | 
16 | CCCCCN(CCCCC)Cc1nc(CCC)n(Cc2ccc(-c3ccccc3-c3nnn[nH]3)cc2)c1C(=O)O | 200 nM | 2 nM |  | 
17 | CCCc1nc(CN2CCN(c3ccccn3)CC2)c(C(=O)O)n1Cc1ccc(-c2ccccc2S(=O)(=O)NC(=O)C2CC2)cc1 | 600 nM | 10 nM |  | 

Row | SMILES | IC50 [1] | IC50 [2] | ED30 [3] | ED30 [4]
18 | CCCc1nc(CN2CCN(c3ccccn3)CC2)c(CO)n1Cc1ccc(-c2ccccc2-c2nn[nH]n2)cc1 | > 10000 nM | 10 nM |  | 
19 | CCCCN(Cc1ccccc1)Cc1nc(CCC)n(Cc2ccc(-c3ccccc3-c3nnn[nH]3)cc2)c1C(=O)O | 90 nM | 3 nM | 0.04 mg/kg | 3 mg/kg
20 | CCCc1nc(CN2CCN(C(=O)c3ccccc3)CC2)c(C(=O)O)n1Cc1ccc(-c2ccccc2-c2nnn[nH]2)cc1 | > 10000 nM | 5 nM |  | 
21 | CCc1nc(CN2CCN(c3ccccn3)CC2)c(C(=O)O)n1Cc1ccc(-c2ccccc2-c2nnn[nH]2)cc1 | 500 nM | 20 nM |  | 
22 | CCCc1nc(CN2CCN(c3ccccc3OC)CC2)c(C(=O)O)n1Cc1ccc(-c2ccccc2-c2nnn[nH]2)cc1 | 3000 nM | 2 nM |  | 
23 | CCCc1nc(CN2CCN(c3ccc(F)cc3)CC2)c(C(=O)O)n1Cc1ccc(-c2ccccc2-c2nn[nH]n2)cc1 | 80 nM | 3 nM |  | 
24 | CCCc1nc(CNC(=O)C(c2ccccc2)c2ccccc2)c(C(=O)O)n1Cc1ccc(-c2ccccc2-c2nn[nH]n2)cc1 | 600 nM | 10 nM |  | 
25 | CCCc1nc(CN(Cc2ccccc2)C(=O)OC(C)(C)C)c(C(=O)O)n1Cc1ccc(-c2ccccc2-c2nn[nH]n2)cc1 | 1000 nM | 9 nM |  | 
26 | CCCCOC(=O)NS(=O)(=O)c1ccccc1-c1ccc(Cn2c(CCC)nc(CN3CCN(c4ccccn4)CC3)c2C(=O)O)cc1 | 90 nM | 6 nM |  | 
27 | CCCc1nc(CN(CC(=O)O)C(=O)C(c2ccccc2)c2ccccc2)c(C(=O)O)n1Cc1ccc(-c2ccccc2-c2nn[nH]n2)cc1 | 7000 nM | 100 nM |  | 
28 | CCCc1nc(CN2CCN(C(=O)C(c3ccccc3)c3ccccc3)CC2)c(C(=O)O)n1Cc1ccc(-c2ccccc2-c2nn[nH]n2)cc1 | 1000 nM | 10 nM |  | 
29 | CCCc1nc(CN2CCN(C(=O)C3CC3)CC2)c(C(=O)O)n1Cc1ccc(-c2ccccc2-c2nnn[nH]2)cc1 | 6000 nM | 10 nM |  | 
30 | CCCc1nc(C(=O)N2CCN(c3ccccn3)CC2)c(C(=O)O)n1Cc1ccc(-c2ccccc2-c2nnn[nH]2)cc1 | 700 nM | 2 nM | 0.018 mg/kg | ~3 mg/kg
31 | CCCc1nc(CN2CCN(c3ncccn3)CC2)c(C(=O)O)n1Cc1ccc(-c2ccccc2-c2nn[nH]n2)cc1 | 80 nM | 2 nM |  | 
32 | CCCc1nc(CN2CCN(c3ccccn3)CC2)c(C=O)n1Cc1ccc(-c2ccccc2-c2nn[nH]n2)cc1 | 1000 nM | 2 nM |  | 
33 | CCCCc1nc(Cl)c(CO)n1Cc1ccc(-c2ccccc2-c2nnn[n-]2)cc1.[K+] [LOSARTAN POTASSIUM] |  |  | 0.78 mg/kg | 0.59 mg/kg
34 | CCCc1nc(CN2CCN(c3ccccn3)CC2)c(C(=O)O)n1Cc1ccc(-c2ccccc2S(=O)(=O)NC(=O)c2ccccc2)cc1 | 500 nM | 6 nM |  | 
